Reference: paper PMC10482975 (Nature Communications, 2023)
Numbering of substitutions follows the chain as printed. Like-named read-outs stand apart in the source and are kept apart here.

Assays:
[1] = target: T1, M4 mAChR W435A (Homo sapiens, UniProt P08173, W435A); assay: [3H]-NMS radioligand dissociation binding, M4 mAChR W435A; details: M4 W435A mAChR, + 10uM LY2033 (Allosteric Ligand)
T1 construct: expressed in transfected cells
T1 sequence (P08173 1-479 W435A): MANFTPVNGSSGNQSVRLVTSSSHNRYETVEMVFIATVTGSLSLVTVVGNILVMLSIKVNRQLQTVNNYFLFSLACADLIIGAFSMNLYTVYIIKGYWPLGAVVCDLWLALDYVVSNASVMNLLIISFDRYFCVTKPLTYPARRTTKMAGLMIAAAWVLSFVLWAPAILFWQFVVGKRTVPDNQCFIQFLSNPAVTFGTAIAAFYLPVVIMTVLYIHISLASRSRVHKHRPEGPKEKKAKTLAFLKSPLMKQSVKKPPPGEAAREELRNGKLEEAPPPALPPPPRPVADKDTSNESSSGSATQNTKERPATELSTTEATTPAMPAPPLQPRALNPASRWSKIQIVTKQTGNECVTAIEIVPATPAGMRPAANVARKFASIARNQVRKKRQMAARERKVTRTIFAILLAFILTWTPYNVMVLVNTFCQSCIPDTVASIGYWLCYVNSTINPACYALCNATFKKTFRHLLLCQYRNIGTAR
Method: (§1) Flp-In Chinese hamster ovary (CHO) (Thermo Fisher Scientific) cells stably expressing mAChR WTs or mutant constructs were cultured in Dulbecco’s modified Eagle’s medium (DMEM, Invitrogen) containing 5% foetal bovine serum (FBS; ThermoTrace) and […] of hygromycin (Roche) in a humidified incubator (37 °C, 5% CO2). Upon reaching confluence, media was removed, cells were washed with phosphate buffered saline (PBS) and harvested from tissue culture flasks using versene (PBS with 0.2 g EDTA). Cells were then pelleted through centrifugation at 350 × g for three minutes followed by resuspension in DMEM + 5% FBS. Cells were then either plated for an assay or reseeded into a tissue culture flask.

[2] = target: T2, M4 mAChR WT (Homo sapiens, UniProt P08173); assay: [3H]-NMS radioligand dissociation binding, M4 mAChR WT; details: M4 mAChR
T2 construct: expressed in transfected cells
T2 sequence (P08173 1-479): T1 sequence (P08173 1-479 W435A) with A435W
Method: as §1

[3] = target: T3, M4 mAChR Q184A (Homo sapiens, UniProt P08173, Q184A); assay: [3H]-NMS radioligand dissociation binding, M4 mAChR Q184A; details: + 10uM LY2033 (Allosteric Ligand)
T3 construct: expressed in transfected cells
T3 sequence (P08173 1-479 Q184A): T1 sequence (P08173 1-479 W435A) with Q184A, A435W
Method: as §1

[4] = target: T4, M1 mAChR WT (Homo sapiens, UniProt P11229); format: binding
T4 construct: expressed in transfected cells
T4 sequence (P11229 1-460): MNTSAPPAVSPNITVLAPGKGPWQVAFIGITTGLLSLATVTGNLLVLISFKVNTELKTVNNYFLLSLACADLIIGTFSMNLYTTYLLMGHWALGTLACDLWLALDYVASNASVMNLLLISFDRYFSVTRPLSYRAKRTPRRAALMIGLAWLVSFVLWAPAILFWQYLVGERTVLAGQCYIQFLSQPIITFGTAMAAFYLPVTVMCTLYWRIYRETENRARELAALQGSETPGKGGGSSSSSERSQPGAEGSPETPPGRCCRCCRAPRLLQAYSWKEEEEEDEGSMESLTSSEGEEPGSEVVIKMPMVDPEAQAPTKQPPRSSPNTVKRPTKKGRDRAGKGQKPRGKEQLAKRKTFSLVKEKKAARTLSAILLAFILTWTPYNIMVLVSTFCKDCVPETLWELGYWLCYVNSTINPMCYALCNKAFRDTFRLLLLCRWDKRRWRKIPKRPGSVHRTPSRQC
Method: as §1

## COc1nc2sc(C(=O)NC3CC3)c(N)c2c(C)c1Cl [LY2033298]
[1]; Time 0 min (Total Binding)
  [3H]-NMS binding remaining vs Total Binding, MEAN: 100
[1]; Time 30 min
  [3H]-NMS binding remaining vs Total Binding, MEAN: 87.6204
[1]; Time 60 min
  [3H]-NMS binding remaining vs Total Binding, MEAN: 83.5904
[1]; Time 90 min
  [3H]-NMS binding remaining vs Total Binding, MEAN: 79.4133
[1]; Time 120 min
  [3H]-NMS binding remaining vs Total Binding, MEAN: 78.9331
[1]; Time 180 min
  [3H]-NMS binding remaining vs Total Binding, MEAN: 67.1451
[1]; Time 300 min
  [3H]-NMS binding remaining vs Total Binding, MEAN: 50.6666
[2]; 10uM Atr + 10uM LY2033, 30 min
  [3H]-NMS binding remaining (0 min = 100), MEAN: 112.685
[2]; 10uM Atr + 10uM LY2033, 60 min
  [3H]-NMS binding remaining (0 min = 100), MEAN: 100.725
[2]; 10uM Atr + 10uM LY2033, 90 min
  [3H]-NMS binding remaining (0 min = 100), MEAN: 100.81
[2]; 10uM Atr + 10uM LY2033, 180 min
  [3H]-NMS binding remaining (0 min = 100), MEAN: 78.3598
[2]; 10uM Atr + 10uM LY2033, 300 min
  [3H]-NMS binding remaining (0 min = 100), MEAN: 57.1596
[2]; 10uM Atr + 30uM LY2033, 30 min
  [3H]-NMS binding remaining (0 min = 100), MEAN: 97.9955
[2]; 10uM Atr + 30uM LY2033, 90 min
  [3H]-NMS binding remaining (0 min = 100), MEAN: 92.0634
[2]; 10uM Atr + 30uM LY2033, 180 min
  [3H]-NMS binding remaining (0 min = 100), MEAN: 80.808
[2]; 10uM Atr + 30uM LY2033, 300 min
  [3H]-NMS binding remaining (0 min = 100), MEAN: 69.858
[3]; Time 0 min (Total Binding)
  [3H]-NMS binding remaining vs Total Binding, MEAN: 100
[3]; Time 30 min
  [3H]-NMS binding remaining vs Total Binding, MEAN: 89.0052
[3]; Time 60 min
  [3H]-NMS binding remaining vs Total Binding, MEAN: 100.674
[3]; Time 90 min
  [3H]-NMS binding remaining vs Total Binding, MEAN: 109.408
[3]; Time 120 min
  [3H]-NMS binding remaining vs Total Binding, MEAN: 91.4218
[3]; Time 180 min
  [3H]-NMS binding remaining vs Total Binding, MEAN: 88.0443
[3]; Time 300 min
  [3H]-NMS binding remaining vs Total Binding, MEAN: 76.9832
[4]; 10uM Atr + 30uM LY2033, 10 min
  [3H]-NMS binding remaining (0 min = 100), MEAN: 100.177
[4]; 10uM Atr + 30uM LY2033, 20 min
  [3H]-NMS binding remaining (0 min = 100), MEAN: 95.7624
[4]; 10uM Atr + 30uM LY2033, 40 min
  [3H]-NMS binding remaining (0 min = 100), MEAN: 97.3513
[4]; 10uM Atr + 30uM LY2033, 60 min
  [3H]-NMS binding remaining (0 min = 100), MEAN: 85.8605
[4]; 10uM Atr + 30uM LY2033, 90 min
  [3H]-NMS binding remaining (0 min = 100), MEAN: 73.8671
[4]; 10uM Atr + 30uM LY2033, 120 min
  [3H]-NMS binding remaining (0 min = 100), MEAN: 62.858
